Reference: patent US20230089605A1, “USE OF DOXYCYCLINE, RESVERATROL, IVERMECTIN, AND RELATED CHEMICALLY MODIFIED COMPOUNDS TO TREAT OR PREVENT VIRAL INFECTIONS” (Ardestat Biologics, LLC, priority 2021, published 2023)

Target: T1, MMP9 (Homo sapiens, UniProt P14780)
T1 construct: purchased Abcam ab139449
Assay: MMP9 inhibitor screening assay kit (Fluorometric), Abcam
Format: biochemical
Settings: result given in words only
Experimental: Doxycycline, resveratrol, colchicine, and ivermectin were assessed at the indicated concentrations using the MMP9 Inhibitor Screening Assay Kit (abcam), according to the manufacturer's instructions.
Inhibition of MMP9 was determined using the MMP9 inhibitor screening assay kit (Fluorometric) from Abcam (Cat#ab139449) according to the manufacturer's instructions. Unquenching of a fluorogenic peptide by MMP9 was monitored for 10 minutes in the presence or absence of inhibitory compounds, using a fluorescent microplate reader (Ex/Em=328/420). Reaction velocity (V) in RFU/minute was used to determine the % of remaining enzymatic activity, relative to untreated control, according to the following equation: (Vinhibitor/Vcontrol)×100 (FIG. 2).

T1 sequence (P14780 107-444 limits assumed): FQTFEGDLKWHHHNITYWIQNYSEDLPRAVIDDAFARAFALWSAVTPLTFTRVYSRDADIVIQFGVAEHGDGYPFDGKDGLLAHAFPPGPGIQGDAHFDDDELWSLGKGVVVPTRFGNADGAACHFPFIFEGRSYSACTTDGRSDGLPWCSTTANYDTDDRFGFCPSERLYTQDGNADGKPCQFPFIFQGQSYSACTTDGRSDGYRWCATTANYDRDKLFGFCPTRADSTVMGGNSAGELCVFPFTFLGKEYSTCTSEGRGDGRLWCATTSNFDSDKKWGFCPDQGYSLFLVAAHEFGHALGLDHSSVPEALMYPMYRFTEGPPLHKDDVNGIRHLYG

Molecule	interference with the MMP-inhibiting effects of doxycycline and resveratrol	inhibition of MMP activity (% of remaining enzymatic activity relative to untreated control) (fluorogenic peptide unquenching monitored 10 minutes, FIG. 2)
ivermectin	has not been shown to interfere with these MMP-inhibiting effects	–
Oc1ccc(C=Cc2cc(O)cc(O)c2)cc1 [resveratrol]	–	inhibited MMP activity but to a much more modest extent compared to doxycycline
